Results as given in PMC9234961 (Journal of Medicinal Chemistry, 2022).
Read-outs that look alike come from different tables or passages of the source.

What was measured:
kinases (468) [1] = target: kinases (468) (Homo sapiens, UniProt P00519, M351T); details: ABL1(M351T)-phosphorylated; 1000 nM
kinases (468) [2] = target: kinases (468) (Homo sapiens, UniProt P16234); details: PDGFRA; 1000 nM
kinases (468) [3] = target: kinases (468) (Homo sapiens, UniProt Q13882); details: BRK (PTK6); 1000 nM
kinases (468) [4] = target: kinases (468) (Homo sapiens, UniProt Q9Y2K2); details: QSK (KIAA0999); 1000 nM
kinases (468) [5] = target: kinases (468) (Homo sapiens, UniProt Q7L7X3); details: kinase TAOK1 (Entrez TAOK1); compound concentration 1000 nM
kinases (468) [6] = target: kinases (468) (Homo sapiens, UniProt O00141); details: kinase SGK (Entrez SGK1); compound concentration 1000 nM
kinases (468) [7] = target: kinases (468) (Homo sapiens, UniProt P07947); details: kinase YES (Entrez YES1); compound concentration 1000 nM
kinases (468) [8] = target: kinases (468) (Homo sapiens, UniProt O15264); details: p38-delta (MAPK13); 1000 nM
kinases (468) (Homo sapiens, UniProt O15264), sequence (O15264 whole entry): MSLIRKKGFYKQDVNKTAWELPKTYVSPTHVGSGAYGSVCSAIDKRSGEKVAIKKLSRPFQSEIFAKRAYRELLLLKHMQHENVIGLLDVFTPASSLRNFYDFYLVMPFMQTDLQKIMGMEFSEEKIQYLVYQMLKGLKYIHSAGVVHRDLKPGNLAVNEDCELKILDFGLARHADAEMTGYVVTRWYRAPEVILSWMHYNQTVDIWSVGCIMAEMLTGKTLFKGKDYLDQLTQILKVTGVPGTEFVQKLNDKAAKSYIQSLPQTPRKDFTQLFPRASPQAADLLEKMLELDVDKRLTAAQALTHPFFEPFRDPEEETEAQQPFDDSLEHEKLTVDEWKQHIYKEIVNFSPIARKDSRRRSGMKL

kinases (468) [9] = target: kinases (468) (Homo sapiens, UniProt O75385); details: kinase ULK1 (Entrez ULK1); compound concentration 1000 nM
kinases (468) [10] = target: kinases (468) (Homo sapiens, UniProt Q16620); details: kinase TRKB (Entrez NTRK2); compound concentration 1000 nM
kinases (468) (Homo sapiens, UniProt Q16620), sequence (Q16620 32-822): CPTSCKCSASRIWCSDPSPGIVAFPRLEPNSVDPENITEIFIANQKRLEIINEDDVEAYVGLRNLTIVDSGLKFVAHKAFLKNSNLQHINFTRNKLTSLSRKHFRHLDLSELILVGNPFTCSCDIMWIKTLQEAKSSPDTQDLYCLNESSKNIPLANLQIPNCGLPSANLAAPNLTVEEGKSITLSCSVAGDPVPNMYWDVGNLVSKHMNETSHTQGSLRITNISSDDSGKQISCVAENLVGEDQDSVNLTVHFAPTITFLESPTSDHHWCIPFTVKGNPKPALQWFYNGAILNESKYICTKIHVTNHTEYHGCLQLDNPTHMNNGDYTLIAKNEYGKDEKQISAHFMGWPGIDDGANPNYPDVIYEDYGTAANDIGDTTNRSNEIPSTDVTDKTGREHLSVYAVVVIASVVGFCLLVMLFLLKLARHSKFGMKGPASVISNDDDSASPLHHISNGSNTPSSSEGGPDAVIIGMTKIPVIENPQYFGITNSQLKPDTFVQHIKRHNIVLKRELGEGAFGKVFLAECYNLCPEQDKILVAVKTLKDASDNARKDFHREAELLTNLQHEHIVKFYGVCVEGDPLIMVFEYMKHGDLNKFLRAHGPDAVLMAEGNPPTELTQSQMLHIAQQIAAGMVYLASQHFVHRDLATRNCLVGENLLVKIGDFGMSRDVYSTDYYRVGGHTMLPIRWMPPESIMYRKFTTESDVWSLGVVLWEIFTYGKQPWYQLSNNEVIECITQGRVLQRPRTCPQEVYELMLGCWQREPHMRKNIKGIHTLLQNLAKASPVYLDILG

kinases (468) [11] = target: kinases (468) (Homo sapiens, UniProt P06241); details: FYN; 1000 nM
kinases (468) (Homo sapiens, UniProt P06241), sequence (P06241 whole entry): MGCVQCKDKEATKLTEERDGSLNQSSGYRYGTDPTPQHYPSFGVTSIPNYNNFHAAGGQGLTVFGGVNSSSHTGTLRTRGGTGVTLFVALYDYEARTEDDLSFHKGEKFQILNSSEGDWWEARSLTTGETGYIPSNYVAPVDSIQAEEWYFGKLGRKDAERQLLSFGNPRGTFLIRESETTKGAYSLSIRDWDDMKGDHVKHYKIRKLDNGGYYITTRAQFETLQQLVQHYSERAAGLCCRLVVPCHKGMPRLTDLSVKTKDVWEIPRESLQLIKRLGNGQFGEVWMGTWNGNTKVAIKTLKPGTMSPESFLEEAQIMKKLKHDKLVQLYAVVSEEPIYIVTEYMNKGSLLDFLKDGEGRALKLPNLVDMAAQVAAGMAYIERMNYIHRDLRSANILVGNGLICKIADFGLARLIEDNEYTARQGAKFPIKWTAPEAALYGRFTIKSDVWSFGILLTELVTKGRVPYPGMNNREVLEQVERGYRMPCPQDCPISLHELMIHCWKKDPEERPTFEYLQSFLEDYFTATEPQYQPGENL

kinases (468) [12] = target: kinases (468) (Homo sapiens, UniProt P42336, H1047Y); details: PIK3CA(H1047Y); 1000 nM
kinases (468) (Homo sapiens, UniProt P42336, H1047Y), sequence (P42336 whole entry H1047Y): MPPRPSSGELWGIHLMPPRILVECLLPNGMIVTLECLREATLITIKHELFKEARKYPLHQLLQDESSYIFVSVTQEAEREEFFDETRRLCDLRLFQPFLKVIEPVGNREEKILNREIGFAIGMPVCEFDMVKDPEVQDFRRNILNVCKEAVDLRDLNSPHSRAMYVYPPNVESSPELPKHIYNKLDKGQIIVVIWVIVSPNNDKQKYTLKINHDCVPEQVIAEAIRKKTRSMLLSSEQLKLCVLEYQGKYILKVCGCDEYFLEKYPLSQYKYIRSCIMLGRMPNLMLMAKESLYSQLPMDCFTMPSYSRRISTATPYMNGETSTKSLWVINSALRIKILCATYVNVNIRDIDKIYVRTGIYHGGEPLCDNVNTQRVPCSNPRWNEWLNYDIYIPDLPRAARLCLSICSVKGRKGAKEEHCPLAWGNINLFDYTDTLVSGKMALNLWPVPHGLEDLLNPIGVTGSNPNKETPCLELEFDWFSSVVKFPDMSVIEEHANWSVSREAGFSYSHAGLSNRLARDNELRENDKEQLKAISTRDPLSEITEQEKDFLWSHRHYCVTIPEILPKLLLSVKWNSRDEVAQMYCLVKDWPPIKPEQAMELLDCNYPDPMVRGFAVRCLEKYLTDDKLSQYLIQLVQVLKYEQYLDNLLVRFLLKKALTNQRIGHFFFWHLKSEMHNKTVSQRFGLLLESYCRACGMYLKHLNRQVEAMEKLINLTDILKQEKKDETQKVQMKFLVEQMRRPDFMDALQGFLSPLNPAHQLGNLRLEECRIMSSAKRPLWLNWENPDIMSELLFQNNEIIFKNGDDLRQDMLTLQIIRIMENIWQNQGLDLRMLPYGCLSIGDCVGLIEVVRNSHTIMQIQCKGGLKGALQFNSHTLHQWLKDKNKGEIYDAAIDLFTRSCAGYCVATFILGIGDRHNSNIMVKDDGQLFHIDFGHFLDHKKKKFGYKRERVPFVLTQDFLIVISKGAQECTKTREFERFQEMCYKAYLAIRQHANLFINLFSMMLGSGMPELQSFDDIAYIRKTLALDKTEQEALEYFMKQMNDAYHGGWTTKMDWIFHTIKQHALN

kinases (468) [13] = target: kinases (468) (Homo sapiens, UniProt P42336, I800L); details: PIK3CA(I800L); 1000 nM
kinases (468) (Homo sapiens, UniProt P42336, I800L), sequence (P42336 whole entry I800L): as the sequence (P42336 whole entry H1047Y) above, with I800L, Y1047H counted along it

kinases (468) [14] = target: kinases (468) (Homo sapiens, UniProt Q9P289); details: MST4; 1000 nM
kinases (468) [15] = target: kinases (468) (Homo sapiens, UniProt Q8NEV4); details: MYO3A; 1000 nM
kinases (468) [16] = target: kinases (468) (Homo sapiens, UniProt P42684); details: ABL2; 1000 nM
kinases (468) [17] = target: kinases (468) (Homo sapiens, UniProt O43283); details: LZK (MAP3K13); 1000 nM
kinases (468) [18] = target: kinases (468) (Homo sapiens, UniProt Q5S007, G2019S); details: LRRK2(G2019S); 1000 nM
kinases (468) [19] = target: kinases (468) (Homo sapiens, UniProt P36888, N841I); details: FLT3(N841I); 1000 nM
kinases (468) [20] = target: kinases (468) (Homo sapiens, UniProt Q8NI60); details: ADCK3 (CABC1); 1000 nM
kinases (468) (Homo sapiens, UniProt Q8NI60), sequence (Q8NI60 163-647): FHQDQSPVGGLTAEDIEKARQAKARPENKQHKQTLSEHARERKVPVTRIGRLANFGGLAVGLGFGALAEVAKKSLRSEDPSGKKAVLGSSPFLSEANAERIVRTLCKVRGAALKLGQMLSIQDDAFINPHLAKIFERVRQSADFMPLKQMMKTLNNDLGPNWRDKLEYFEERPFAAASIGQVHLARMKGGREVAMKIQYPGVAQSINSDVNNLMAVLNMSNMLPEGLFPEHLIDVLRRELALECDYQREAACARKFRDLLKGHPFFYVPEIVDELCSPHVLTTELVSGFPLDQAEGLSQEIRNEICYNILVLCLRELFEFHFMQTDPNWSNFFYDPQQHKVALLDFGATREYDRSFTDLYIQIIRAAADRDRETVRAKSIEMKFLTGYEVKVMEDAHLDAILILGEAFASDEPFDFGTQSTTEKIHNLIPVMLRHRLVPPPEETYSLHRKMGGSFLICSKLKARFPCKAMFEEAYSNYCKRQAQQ

kinases (468) [21] = target: kinases (468) (Homo sapiens, UniProt Q9NRM7); details: LATS2; 1000 nM
kinases (468) (Homo sapiens, UniProt Q9NRM7), sequence (Q9NRM7 whole entry): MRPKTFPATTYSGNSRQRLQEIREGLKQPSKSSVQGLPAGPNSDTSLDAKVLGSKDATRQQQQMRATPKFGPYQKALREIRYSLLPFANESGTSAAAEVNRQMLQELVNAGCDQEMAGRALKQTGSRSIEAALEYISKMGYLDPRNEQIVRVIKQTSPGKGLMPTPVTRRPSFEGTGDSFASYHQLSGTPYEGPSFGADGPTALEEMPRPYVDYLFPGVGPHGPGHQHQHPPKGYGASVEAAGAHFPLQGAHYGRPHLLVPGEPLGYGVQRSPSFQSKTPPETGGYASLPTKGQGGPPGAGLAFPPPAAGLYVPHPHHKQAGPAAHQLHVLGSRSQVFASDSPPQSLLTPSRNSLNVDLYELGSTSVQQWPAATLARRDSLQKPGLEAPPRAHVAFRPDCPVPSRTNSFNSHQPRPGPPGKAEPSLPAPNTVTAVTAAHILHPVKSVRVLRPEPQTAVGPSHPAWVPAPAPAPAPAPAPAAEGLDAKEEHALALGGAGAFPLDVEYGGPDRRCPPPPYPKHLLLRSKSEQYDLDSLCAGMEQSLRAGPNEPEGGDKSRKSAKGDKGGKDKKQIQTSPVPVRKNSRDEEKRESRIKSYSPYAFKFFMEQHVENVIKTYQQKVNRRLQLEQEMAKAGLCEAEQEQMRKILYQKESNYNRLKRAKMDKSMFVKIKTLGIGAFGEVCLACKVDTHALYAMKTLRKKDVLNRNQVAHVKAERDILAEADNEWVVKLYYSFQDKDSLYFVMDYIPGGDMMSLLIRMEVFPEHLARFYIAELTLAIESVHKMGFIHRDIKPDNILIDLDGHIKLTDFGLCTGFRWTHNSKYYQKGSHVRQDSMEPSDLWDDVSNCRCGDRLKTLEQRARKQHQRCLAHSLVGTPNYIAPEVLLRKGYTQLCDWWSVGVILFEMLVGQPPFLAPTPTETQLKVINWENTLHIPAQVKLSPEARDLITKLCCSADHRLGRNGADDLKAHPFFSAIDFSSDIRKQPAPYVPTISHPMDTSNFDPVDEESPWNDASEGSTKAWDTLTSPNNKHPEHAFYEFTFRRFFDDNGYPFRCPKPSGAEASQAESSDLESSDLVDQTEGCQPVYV

kinases (468) [22] = target: kinases (468) (Homo sapiens, UniProt P00519, F317I); details: 1000 nM
kinases (468) [23] = target: kinases (468) (Homo sapiens, UniProt P53355); details: DAPK1; 1000 nM
kinases (468) [24] = target: kinases (468) (Homo sapiens, UniProt Q9H4B4); details: PLK3; 1000 nM
kinases (468) [25] = target: kinases (468) (Homo sapiens, UniProt Q8WU08); details: kinase YANK1 (Entrez STK32A); compound concentration 1000 nM
kinases (468) [26] = target: kinases (468) (Homo sapiens, UniProt P00533, DEL746-750); details: EGFR(E746-A750del); 1000 nM
kinases (468) [27] = target: kinases (468) (Homo sapiens, UniProt P36888, R834Q); details: FLT3(R834Q); 1000 nM
kinases (468) [28] = target: kinases (468) (Homo sapiens, UniProt P51817); details: PRKX; 1000 nM
kinases (468) [29] = target: kinases (468) (Homo sapiens, UniProt Q9Y2I7); details: PIKFYVE; 1000 nM
kinases (468) [30] = target: kinases (468) (Homo sapiens, UniProt Q8IVH8); details: MAP4K3; 1000 nM
kinases (468) [31] = target: kinases (468) (Homo sapiens, UniProt P17948); details: FLT1; 1000 nM
kinases (468) [32] = target: kinases (468) (Homo sapiens, UniProt P42681); details: kinase TXK (Entrez TXK); compound concentration 1000 nM
kinases (468) [33] = target: kinases (468) (Homo sapiens, UniProt P51957); details: NEK4; 1000 nM
kinases (468) [34] = target: kinases (468) (Homo sapiens, UniProt Q13233); details: MAP3K1; 1000 nM

kinases (468) (Homo sapiens, UniProt Q13882), sequence (Q13882 whole entry): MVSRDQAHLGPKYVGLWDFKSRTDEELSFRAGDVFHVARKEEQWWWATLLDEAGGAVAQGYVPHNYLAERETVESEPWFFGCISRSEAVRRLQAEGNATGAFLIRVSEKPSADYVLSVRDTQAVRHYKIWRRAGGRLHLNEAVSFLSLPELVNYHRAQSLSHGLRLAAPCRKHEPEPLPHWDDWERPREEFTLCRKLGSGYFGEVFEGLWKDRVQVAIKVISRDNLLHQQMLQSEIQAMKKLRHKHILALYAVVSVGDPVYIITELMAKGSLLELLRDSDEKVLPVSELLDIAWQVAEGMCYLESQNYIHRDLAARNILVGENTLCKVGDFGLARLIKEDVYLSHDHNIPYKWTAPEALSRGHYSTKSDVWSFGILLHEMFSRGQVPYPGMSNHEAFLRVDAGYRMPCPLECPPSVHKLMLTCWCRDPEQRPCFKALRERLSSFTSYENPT

In the case of `C[C@H]1C[C@@H](O)CN(c2ncc(Cl)c(Nc3ccc4c(c3)c3c(c(=O)n4C)OCC(F)(F)[C@H](C4CC4)N3)n2)C1` [CCT373566_9A], the “Percent Control” value (kinases (468) [1]) is reported as 90%, the “Percent Control” value (kinases (468) [2]) is reported as 95% and the “Percent Control” value (kinases (468) [3]) is reported as 100%. For the same compound, the “Percent Control” value (kinases (468) [4]) was 90%, the “Percent Control” value (kinases (468) [5]) was 99% and the “Percent Control” value (kinases (468) [6]) was 98%. The “Percent Control” value (kinases (468) [7]) was 99%, the “Percent Control” value (kinases (468) [8]) was 94% and the “Percent Control” value (kinases (468) [9]) was 93%. The “Percent Control” value (kinases (468) [10]) was 97%, the “Percent Control” value (kinases (468) [11]) was 100% and the “Percent Control” value (kinases (468) [12]) was 94%. For the same compound, the “Percent Control” value (kinases (468) [13]) was 82%, the “Percent Control” value (kinases (468) [14]) was 100% and the “Percent Control” value (kinases (468) [15]) was 100%. The “Percent Control” value (kinases (468) [16]) was 100%, the “Percent Control” value (kinases (468) [17]) was 81% and the “Percent Control” value (kinases (468) [18]) was 12%. For the same compound, the “Percent Control” value (kinases (468) [19]) was 94%, the “Percent Control” value (kinases (468) [20]) was 100% and the “Percent Control” value (kinases (468) [21]) was 96%. The “Percent Control” value (kinases (468) [22]; ABL1(F317I)-nonphosphorylated) was 95%, the “Percent Control” value (kinases (468) [22]; ABL1(F317I)-phosphorylated) was 90% and the “Percent Control” value (kinases (468) [23]) was 83%. The “Percent Control” value (kinases (468) [24]) was 78%, the “Percent Control” value (kinases (468) [25]) was 98% and the “Percent Control” value (kinases (468) [26]) was 100%. For the same compound, the “Percent Control” value (kinases (468) [27]) was 100%, the “Percent Control” value (kinases (468) [28]) was 100% and the “Percent Control” value (kinases (468) [29]) was 83%. For the same compound, the “Percent Control” value (kinases (468) [30]) was 100%, the “Percent Control” value (kinases (468) [31]) was 100% and the “Percent Control” value (kinases (468) [32]) was 99%. The “Percent Control” value (kinases (468) [33]) was 91% and the “Percent Control” value (kinases (468) [34]) was 93%.
